The assay deals with T1, sEH enzyme (Homo sapiens, UniProt P34913).
T1 sequence (P34913 1-555): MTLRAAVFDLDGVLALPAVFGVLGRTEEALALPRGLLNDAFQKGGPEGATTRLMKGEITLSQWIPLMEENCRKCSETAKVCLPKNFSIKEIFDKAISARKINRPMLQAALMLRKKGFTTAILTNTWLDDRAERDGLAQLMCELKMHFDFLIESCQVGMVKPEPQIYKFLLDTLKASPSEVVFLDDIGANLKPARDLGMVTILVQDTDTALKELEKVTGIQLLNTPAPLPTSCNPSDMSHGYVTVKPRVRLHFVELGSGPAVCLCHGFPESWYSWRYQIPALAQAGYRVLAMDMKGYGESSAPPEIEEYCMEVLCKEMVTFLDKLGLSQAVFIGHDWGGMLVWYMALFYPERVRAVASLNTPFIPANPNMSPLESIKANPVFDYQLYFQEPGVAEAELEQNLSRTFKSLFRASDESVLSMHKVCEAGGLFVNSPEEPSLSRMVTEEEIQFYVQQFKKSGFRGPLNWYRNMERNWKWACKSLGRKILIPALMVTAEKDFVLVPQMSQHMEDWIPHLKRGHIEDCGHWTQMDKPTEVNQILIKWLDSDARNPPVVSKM
As to the kind of experiment: sEH enzyme kinetics. The assay is classed as biochemical. The settings on record: for Ki: Ki (μM), Dixon plots; for Inhibition type: Lineweaver–Burk plots.

A word on the Ki: it is a measure of affinity in units of concentration, obtained from inhibition or displacement. A lower Ki goes with higher affinity.

For `O=C(CCCCCCCCc1ccc(O)cc1)c1c(O)cccc1O` [Compound 19, malabaricone B], the Ki turned out to be 20.9 µM and the Inhibition type entry is on record as “Competitive”.
In the same order, the values of `O=C(CCCCCCCCc1ccc(O)c(O)c1)c1c(O)cccc1O` [Compound 20, malabaricone C] are 11.1 µM and “Competitive”.

Source of the values: PMC10464555 (Journal of Enzyme Inhibition and Medicinal Chemistry, 2023).
